Test results taken from PubChem BioAssay (NCI).
Values joined by “and” are separate entries in the source; they are usually repeats but may differ in a detail not shown here. Identical values can stand only once.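 Cultured in 96-well plates, cells were exposed to test compound for 48 hours across five concentrations. Here, GI50 denotes the concentration required for 50% inhibition of growth. TGI is the concentration that stops growth completely.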

How the values were obtained:
Experiment in all cases: inhibition of tumour cell growth, NCI panel, 48 h
PC-3 prostate = tested on: PC-3 prostate
OVCAR-4 ovarian = tested on: OVCAR-4 ovarian
SF-539 CNS = tested on: SF-539 CNS
CCRF-CEM leukemia = tested on: CCRF-CEM leukemia
HCC-2998 colon = tested on: HCC-2998 colon
HT29 colon = tested on: HT29 colon
SK-OV-3 ovarian = tested on: SK-OV-3 ovarian
LOX IMVI melanoma = tested on: LOX IMVI melanoma
786-0 renal = tested on: 786-0 renal
CAKI-1 renal = tested on: CAKI-1 renal

SMILES	GI50 (PC-3 prostate) [µM]	TGI (PC-3 prostate) [µM]	GI50 (OVCAR-4 ovarian)	TGI (OVCAR-4 ovarian) [µM]	GI50 (SF-539 CNS) [µM]	TGI (SF-539 CNS) [µM]	GI50 (CCRF-CEM leukemia)	TGI (CCRF-CEM leukemia) [µM]	GI50 (HCC-2998 colon) [µM]	TGI (HCC-2998 colon) [µM]	GI50 (HT29 colon) [µM]	TGI (HT29 colon) [µM]	GI50 (SK-OV-3 ovarian) [µM]	TGI (SK-OV-3 ovarian) [µM]	GI50 (LOX IMVI melanoma) [µM]	TGI (LOX IMVI melanoma) [µM]	GI50 (786-0 renal) [µM]	TGI (786-0 renal) [µM]	TGI (CAKI-1 renal) [µM]	GI50 (CAKI-1 renal) [µM]
CNCCN(C)Cc1cn[nH]c1-c1ccc(OC2CC(OCCC3CCOCC3)C2)cc1 (stereo unspecified)	> 63.4	> 100	> 85 µM	> 100	> 100	> 100	> 100 µM	> 100	> 100	> 100	38.6	> 100	> 100	> 100	60.1	> 100	> 100	> 100		
O=C(O)c1cn(C2CC2)c2cc(N3CCN(Cc4ccc5ccccc5c4O)CC3)c(F)cc2c1=O											4.35	> 100	3.68	> 100	3.13	> 100	2.34	5.42		
CC1(C)CC(N2CCN(C3CC(C)(C)NC(C)(C)C3)CC2)CC(C)(C)N1				> 100		> 100		> 100		> 100		> 100		> 100		> 100		> 100	> 100	
NCC1(N2CCOCC2)C2CCCC21CNc1ccccc1 (stereo unspecified)				> 100		> 100		> 100		> 100		> 100				> 100		> 100	> 100	
O=C1c2ccccc2C(=O)c2c1ccc1c2N=C(c2ccc(Br)cc2)CC(c2cccc3ccccc23)N1 (stereo unspecified)				> 100		> 100		> 100		> 100		> 100		> 100		> 100		> 100	> 100	
Fc1ccc(C2C3CCOc4c(ccc5ccccc45)C3=NN2c2ccccc2)cc1 (stereo unspecified)	> 54.9	> 100	> 100 µM	> 100			16.6 µM	> 74.4			> 100	> 100	> 100	> 100	88.4	> 100	> 100	> 100	> 100	64.2
COC(=O)C1(C)CCCC2(C)c3cc(OC)ccc3C(=O)C(Br)C12 (stereo unspecified)		> 10				> 10		6.59		> 10		> 10		> 10		> 10		4.21	> 10	
N=C1/C(=C2\Nc3ccccc3S2)CC(=O)N1c1ccc(SC(F)F)cc1	3.55	93.5	0.969 µM	52.2	4.09	28	0.839 µM	> 100			1.99	> 100	8.6	> 100	2.21	> 100	3.23	> 100	> 100	8.7
N#Cc1c(N)c(C#N)c2c(c1-c1ccc(Cl)cc1)COc1ccc(F)cc1-2	> 50	> 50	> 50 µM	> 50	28.2	> 50	> 50 µM	> 50			49.7	> 50	> 50	> 50	43.9	> 50	20	> 50	> 50	21
COc1cc(-c2nn(-c3cccc(NC(=O)CCN4CCN(C)CC4)c3)cc2-c2ccncc2)ccc1Cl	0.995	3.68	1.73 µM	11.4	1.55	3.06	1.98 µM	6.85	1.86	3.79	0.371	1.64	1.81	7.34	0.922	2.22	1.54	3.43		
NC(=O)c1ncn(Cc2ccccc2)c1CNC(N)=S				> 100		> 100		> 100		> 100		> 100		> 100		> 100		> 100		
CC1(C)OC(=O)C(=Cc2ccc([N+](=O)[O-])s2)C(=O)O1		38.1				29.4		88.6		24.7		38.5		65.3		32.6		32.2	29.5	
O=C(NC1C(=O)NNC1c1ccccc1Cl)c1ccccc1 (stereo unspecified)				> 100		> 100		> 100		> 100		> 100		> 100		> 100		> 100	> 100	
ClCCCCOC1CCCCO1 (stereo unspecified)				> 100		> 100				> 100		> 100		> 100				> 100	> 100	
Cn1cnc([N+](=O)[O-])c1Sc1nc2ccc([N+](=O)[O-])cc2[nH]1				> 100		44		81.1		29.2		> 100		62.5		60.1		> 100	26.7	
O=c1[nH]c(SCc2ccccc2[N+](=O)[O-])nc2nc[nH]c12		> 100	30.3 µM and > 100 µM	> 100		> 100	> 100 µM and 29.6 µM	> 100				> 100		> 100		> 100		> 100	> 100	
CC(C)COC(c1ccc2c(c1)OCO2)C(C)Br (stereo unspecified)		> 100		> 100		71.3				38.6		45.5		80		35.4		62.3	> 100	
Cc1ccc(NC(=O)C(=O)CC(=O)c2ccccc2)cc1C				> 100		> 100				> 100		> 100		> 100		> 100		> 100	> 100	
Fc1ccc(-c2nn3c(COc4ccc(Cl)cc4Cl)nnc3s2)cc1Oc1ccccc1	8.94	21.4	24.6 µM	> 100	18	32.3	16.8 µM	39			15.9	34.8			14.6	29	14	26.9	25.4	12.8
c1cc2c(c(NC3=NCCN3)c1)CCCC2		> 100		> 100		> 100		> 100				> 100		> 100		> 100		> 100	> 100	
